Experiments:
[1] = Intrinsic clearance in human liver microsomes; format: ADME, Microsome
[2] = Intrinsic clearance in rat liver microsomes; format: ADME, Microsome

| Structure (SMILES) | microsomal CLint [1] | microsomal CLint [2] |
| --- | --- | --- |
| CCN(CC)C(=O)c1ccc(N(c2cccc(O)c2)C2CCN(Cc3ccccc3)CC2)cc1 | 286 µL/min/mg | 384 µL/min/mg |
| CCN(CC)C(=O)c1ccc(N(c2cccc(NC(C)=O)c2)C2CCN(Cc3ccccc3)CC2)cc1 | 139 µL/min/mg | – |
| CCN(CC)C(=O)c1ccc(N(c2cccc(NC(=O)OC)c2)C2CCN(Cc3ccccc3)CC2)cc1 | 200 µL/min/mg | – |
| CCN(CC)C(=O)c1ccc(N(c2cccc(C(N)=O)c2)C2CCN(Cc3ccccc3)CC2)cc1 | 71 µL/min/mg | 62 µL/min/mg |
| CCN(CC)C(=O)c1ccc(N(c2cccc(NS(C)(=O)=O)c2)C2CCN(Cc3ccccc3)CC2)cc1 | 96 µL/min/mg | – |
